EC50 data for three molecules are collected here from ChEMBL document CHEMBL3102797, “Kelsoenethiol and dikelsoenyl ether, two unique kelsoane-type sesquiterpenes, from the Formosan soft coral Nephthea erecta” (2014).

Common to all, as to format: functional
Conditions in all cases: read-out: ED50 (the source's name)

Assay [1] concerns A549. In words: Cytotoxicity against human A549 cells.
Assay [2] has as its system HT-29. Kind of assay: Cytotoxicity against human HT-29 cells.
Assay [3] concerns P388. Kind of assay: Cytotoxicity against mouse P388 cells.

The structures appear in SMILES notation. In brackets after ≈: the same amount, converted by molar mass.

Turning to `CO[C@H](C(=O)[C@@H](O)[C@@H](C)O)[C@@H]1Cc2cc3cc(O[C@H]4C[C@@H](O[C@@H]5C[C@@H](O)[C@H](O)[C@@H](C)O5)[C@H](O)[C@@H](C)O4)c(C)c(O)c3c(O)c2C(=O)[C@H]1O[C@H]1C[C@@H](O[C@@H]2C[C@@H](O)[C@@H](O[C@@H]3C[C@](C)(O)[C@H](O)[C@@H](C)O3)[C@@H](C)O2)[C@H](O)[C@@H](C)O1` [PLICAMYCIN], the EC50 in assay [1] turned out to be 0.07 µg/mL (≈ 0.0645 µM); in assay [2], 0.08 µg/mL (≈ 0.0737 µM); in assay [3] it was 0.06 µg/mL (≈ 0.0553 µM).
In the case of `C=C(C)[C@H]1[C@@H]2[C@H](C)CC[C@@H]2[C@@]2(C)CC[C@@H]12`, the EC50 in assay [2] stood at 3.2 µg/mL (≈ 15.7 µM); in assay [3], 2.8 µg/mL (≈ 13.7 µM).
For `C/C(CS)=C1\[C@@H]2[C@H](C)CC[C@@H]2[C@@]2(C)CC[C@@H]12` (relative stereo) the same measures were 1.8 µg/mL (≈ 7.61 µM) and 1.3 µg/mL (≈ 5.5 µM).
